Assay results from patent US6235707A, “Anticoagulant peptidyl-arginine aldehyde derivatives” (Gyogyszerkutato Intezet Kft., priority 1996, dated 2001).

System: citrate plasma
Test: prothrombin time (PT) plasma clotting test
Type: biochemical
Details: Table 3; twofold prolongation compared to control; read-out: A: anticoagulant IC50, PT
Procedure: Anticoagulant activity (i.e. inhibition of the proteolytic reactions in the process) is measured by anticoagulant tests, e.g. in the thrombin time (TT), activated partial thromboplastin time (APTT) and prothrombin time (PT) tests [E. J. W. Bovie et al., Mayo Clinic Laboratory Manual of Haemostasis; W. B. Saunders Co., Philadelphia (1971)]. Plasma, inhibited in spontaneous coagulation, e.g. citrate-plasma, is made to coagulate and the required coagulation time is measured. Upon the action of anticoagulants the coagulation time is prolonged proportionally to the inhibition of the reaction(s) in the process. The anticoagulant effect can be characterised by the substance concentration required to prolong the coagulation time twofold compared to the control (IC50). The effect of anticoagulants on individual coagulant proteases is measured by the amidolytic method [R. Lottenberg et al., Methods in Enzymol. 80, 341 (1981); G. Cleason, Blood Coagulation and Fibrinolysis 5, 411 (1994)]. The isolated active factor (e.g. thrombin, fXa) and its chromogen or fluorogen peptide-amide substrate are reacted in the presence or absence of the inhibitor, resp. The enzyme inhibiting action is characterised by the inhibitory constant (IC50) measured during amidolysis.
In the TT test coagulation is initiated by the thrombin added to the citrate plasma. In the system 22 pmol/ml of thrombin is functioning and its inhibition can be measured on the fibrinogen (one of the natural substrates of thrombin) in the presence of plasma components. In the APTT and PT tests the full coagulation process takes place. Depending on the activator fX is activated either by the extrinsic or the intrinsic pathway. The generated fXa activates prothrombin to thrombin which, in turn, triggers plasma coagulation. The coagulation time is prolonged if the enzymes or one of them is inhibited by the inhibitor. In the APTT and PT tests at most 40 pmol/ml Xa can be generated (this is the full amount of factor X present in both systems) while 150 pmol/ml (APTT) and 350 pmol/ml (PT) of thrombin are generated [B. Kaiser et al., Thromb. Res. 65, 157 (1992)].
The in vitro anticoagulant effects of the compounds of general formula (I) was measured by the prothrombin time (PT), activated partial thromboplastin time (APTT) and thrombin time (TT) tests [D. Bagdy et al., Thromb. Haemost. 67, 325 (1992)]. The fxa-inhibiting effect of the compounds was also determined using the Bz-Ile-Glu-Gly-Arg-pNA chromogen substrate (see method M6).

CCOC(=O)N[C@H](CC1CCC1)C(=O)N1CCC[C@H]1C(=O)N[C@H](C=O)CCCNC(=N)N [Example 1, Ethoxycarbonyl-3-cyclobutyl-D-alanyl-L-prolyl-L-arginine aldehyde]
IC50: 1.15 µM
